From publication PMC3835915, “Diversification of Fungal Specific Class A Glutathione Transferases in Saprotrophic Fungi” (PLoS ONE, 2013)
Like-named read-outs stand apart in the source and are kept apart here. Values belong to the molecule of their own block, whether it stands above or below them.

Legend:
CcGSTFuA2461 = biological target: T1, CcGSTFuA2461; assay: inhibition of MUA esterase activity, fluorescence; type: biochemical, Coprinopsis cinerea; conditions: competitive vs MUA; no GSH; 30 mM Tris-HCl pH 8; 2 µM enzyme; read-out: PcGSTFuA1 / ANS
T1 construct: gene GSTFuA2461; full length, untagged, pET-3d, E. coli BL21(DE3) pSBET; primers encode N-term MAITFYDL, C-term TGSKL
From the text: inhibition of MUA esterase activity, fluorescence on CcGSTFuA2461

CcGSTFuA6800 = system: T2, CcGSTFuA6800; assay: esterase activity, fluorescence; type: biochemical, Coprinopsis cinerea; conditions: no GSH
T2 construct: gene GSTFuA6800; full length, untagged, pET-3d, E. coli BL21(DE3) pSBET; primers encode N-term MAIILYDL, C-term YTTVV
From the text: esterase activity, fluorescence on CcGSTFuA6800

PcGSTFuA3 [1] = biological target: T3, PcGSTFuA3; assay: ANS displacement, fluorescence; type: binding, Phanerodontia chrysosporium; conditions: TE buffer pH 8.0; 3 µM enzyme; ANS probe at L-site overlapping G-site
T3 construct: gene GSTFuA3; full length, untagged, pET-3d, E. coli BL21(DE3) pSBET; Ala inserted after Met1; dimer; primers encode N-term MASLEPII, C-term EFVDV
From the text: ANS displacement, fluorescence on PcGSTFuA3

CcGSTFuA6801 [2] = biological target: T4, CcGSTFuA6801; assay: ANS displacement, fluorescence; type: binding, Coprinopsis cinerea; conditions: TE buffer pH 8.0; 3 µM enzyme; ANS probe; read-out: PcGSTFuA3 / ANS
T4 construct: gene GSTFuA6801; full length, untagged, pET-3d, E. coli BL21(DE3) pSBET; primers encode N-term MAITFYDI, C-term YHTVA
From the text: ANS displacement, fluorescence on CcGSTFuA6801

PcGSTFuA4 = biological target: T5, PcGSTFuA4 (Phanerodontia chrysosporium, UniProt M1NR33); assay: ANS displacement, fluorescence; type: binding; conditions: TE buffer pH 8.0; 3 µM enzyme; ANS probe at L-site overlapping G-site
T5 construct: full length, untagged, pET-3d, E. coli BL21(DE3) pSBET; primers encode N-term MADVITLY, C-term AHVDL
From the text: ANS displacement, fluorescence on PcGSTFuA4

PcGSTFuA1 = biological target: T6, PcGSTFuA1 (Phanerodontia chrysosporium, UniProt I6ZUH3); assay: ANS displacement, fluorescence; type: binding
T6 construct: full length, untagged, pET-3d, E. coli BL21(DE3) pSBET; Ala inserted after Met1; dimer; primers encode N-term MAQPIVF, C-term EQVDV
From the text: ANS displacement, fluorescence on PcGSTFuA1

CcGSTFuA6820 = biological target: T7, CcGSTFuA6820; assay: inhibition of MUA esterase activity, fluorescence; type: biochemical, Coprinopsis cinerea; conditions: non-competitive vs MUA; no GSH; 30 mM Tris-HCl pH 8; 2 µM enzyme; read-out: PcGSTFuA4 / ANS
T7 construct: gene GSTFuA6820; full length, untagged, pET-3d, E. coli BL21(DE3) pSBET; primers encode N-term MAITLYDS, C-term YQAVH
From the text: inhibition of MUA esterase activity, fluorescence on CcGSTFuA6820

PcGSTFuA2 [3] = system: T8, PcGSTFuA2; assay: esterase activity, fluorescence; type: biochemical, Phanerodontia chrysosporium; conditions: no GSH; 30 mM Tris-HCl pH 8
T8 construct: gene GSTFuA2; full length, untagged, pET-3d, E. coli BL21(DE3) pSBET; Ala inserted after Met1; dimer; primers encode N-term MASQPIVF, C-term ERADD
From the text: esterase activity, fluorescence on PcGSTFuA2

PcGSTFuA2 [4] = biological target: T8, PcGSTFuA2; assay: ANS displacement, fluorescence; type: binding, Phanerodontia chrysosporium; conditions: TE buffer pH 8.0; 3 µM enzyme; ANS probe at L-site overlapping G-site
From the text: ANS displacement, fluorescence on PcGSTFuA2

CcGSTFuA6801 [5] = system: T4, CcGSTFuA6801; assay: GSH conjugation, absorbance […] nm; type: biochemical, Coprinopsis cinerea; conditions: 5 mM GSH; pH 6.5; 2% acetonitrile
PcGSTFuA3 [6] = system: T3, PcGSTFuA3; assay: GSH conjugation, absorbance […] nm; type: biochemical, Phanerodontia chrysosporium; conditions: 5 mM GSH; pH 6.5; 2% acetonitrile

T6 sequence (I6ZUH3 entry or part of it): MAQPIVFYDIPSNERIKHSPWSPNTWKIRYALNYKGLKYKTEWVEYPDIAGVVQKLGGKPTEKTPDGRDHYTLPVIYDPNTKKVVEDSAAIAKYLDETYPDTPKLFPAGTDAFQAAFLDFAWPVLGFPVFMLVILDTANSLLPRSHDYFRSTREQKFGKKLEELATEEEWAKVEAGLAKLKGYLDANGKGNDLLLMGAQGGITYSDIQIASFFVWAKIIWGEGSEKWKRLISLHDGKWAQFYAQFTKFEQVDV
T5 sequence (M1NR33 entry or part of it): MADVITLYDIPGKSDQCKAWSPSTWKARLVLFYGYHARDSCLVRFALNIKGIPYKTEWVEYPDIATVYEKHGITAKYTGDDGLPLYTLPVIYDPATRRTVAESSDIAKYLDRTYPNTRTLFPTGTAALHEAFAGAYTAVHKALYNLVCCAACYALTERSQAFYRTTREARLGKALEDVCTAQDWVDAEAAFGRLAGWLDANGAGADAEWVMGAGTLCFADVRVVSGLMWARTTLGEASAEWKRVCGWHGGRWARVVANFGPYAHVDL

Structure (SMILES): O=C(O)c1ccc(Cl)c([N+](=O)[O-])c1 [4-chloro-3-nitrobenzoic acid]
- Ki (CcGSTFuA2461): 287 ± 29.7 µM

Structure (SMILES): COc1cc(/C=C/C=O)ccc1O [Coniferaldehyde]
- IC50 (PcGSTFuA3 [1]): 68.4 ± 25.3 µM
- IC50 (CcGSTFuA6801 [2]): 327 ± 50.6 µM
- IC50 (PcGSTFuA4): 147 ± 5.1 µM
- IC50 (PcGSTFuA1): 62.3 ± 1.2 µM

Structure (SMILES): O=C(O)c1cc(O)c(O)c(O)c1 [Gallic acid]
- Ki (CcGSTFuA2461): 114 ± 8.9 µM
- Ki (CcGSTFuA6820): 566 ± 16.5 µM

Structure (SMILES): COc1cc(C=O)cc(OC)c1O [Syringaldehyde]
- IC50 (PcGSTFuA3 [1]): 37.2 ± 3.8 µM
- IC50 (CcGSTFuA6801 [2]): 276 ± 97.8 µM
- IC50 (PcGSTFuA2 [4]): 89.3 ± 2.8 µM
- Ki (CcGSTFuA6820): 594 ± 37.6 µM
- IC50 (PcGSTFuA4): 199 ± 25.2 µM
- IC50 (PcGSTFuA1): 62.5 ± 1.6 µM

Structure (SMILES): S=C=NCCc1ccccc1 [phenethyl-ITC]
- Km (CcGSTFuA6801 [5]): 41.6 ± 3.73 µM
- Km (PcGSTFuA3 [6]): 53.2 ± 5.37 µM

Second part, the molecule after the results:

- Km (CcGSTFuA6800; 50 mM phosphate pH 8.0, read-out: CcGSTFuA6800): 0.153 ± 0.023 µM
Structure (SMILES): CC(=O)Oc1ccc2c(c1)Oc1cc(OC(C)=O)ccc1C21OC(=O)c2cc(CCl)ccc21 [CMFDA]

- Km (CcGSTFuA6800; 30 mM Tris-HCl pH 8, read-out: PcGSTFUA2): 25.4 ± 4.37 µM
- Km (PcGSTFuA2 [3]): 23.5 ± 6.2 µM
Structure (SMILES): CC(=O)Oc1ccc2c(C)cc(=O)oc2c1 [MUA]

- IC50 (PcGSTFuA2 [4]): 84.7 ± 5.2 µM
Structure (SMILES): COc1cc(C=O)ccc1O [Vanillin]
